pIC50: −log10 of the molar value.
Target: T1, human IDO1 (Homo sapiens, UniProt P14902)
T1 construct: expressed in transfected cells
Assay: IDO inhibition assay in HEK293 cells stably expressing human IDO1 (kynurenine, Ehrlich reagent, absorbance 490 nm)
Assay type: cell-based
Details: 20 hours incubation, read-out: IDO1 HEK Human IC50
Protocol: HEK293 cells were transfected with a pCDNA-based mammalian expression vector harboring human IDO1 cDNA (NM 002164.2) by electroporation. They were cultured in medium (DMEM with 10% FBS) containing 1 mg/ml G418 for two weeks. Clones of HEK293 cells that stably expressed human IDO1 protein were selected and expanded for IDO inhibition assay. The human IDO1/HEK293 cells were seeded at 10,000 cells per 50 μL per well with RPMI/phenol red free media contains 10% FBS in a 384-well black wall clear bottom tissue culture plate (Matrix Technologies LLC) 100 nL of certain concentration of compound was then added to each well using ECHO liquid handling systems. The cells were incubated for 20 hours in 37° C. incubator with 5% CO2. The compound treatments were stopped by adding trichloroacetic acid (Sigma-Aldrich) to a final concentration at 0.2%. The cell plate was further incubated at 50° C. for 30 minute. The equal volume supernatant ([…]) and 0.2% (w/v) Ehrlich reagent (4-dimethylaminobenzaldehyde, Sigma-Aldrich) in glacial acetic acid were mixed in a new clear bottom 384-well plate. This plate was then incubated at room temperature for 30 minute. The absorbance at 490 nm was measured on Envision plate reader. Compound IC50 values were calculated using the counts of 500 nM of a reference standard treatment as one hundred percent inhibition, and counts of no compound but DMSO treatment as zero percent inhibition.

T1 sequence (P14902 whole entry): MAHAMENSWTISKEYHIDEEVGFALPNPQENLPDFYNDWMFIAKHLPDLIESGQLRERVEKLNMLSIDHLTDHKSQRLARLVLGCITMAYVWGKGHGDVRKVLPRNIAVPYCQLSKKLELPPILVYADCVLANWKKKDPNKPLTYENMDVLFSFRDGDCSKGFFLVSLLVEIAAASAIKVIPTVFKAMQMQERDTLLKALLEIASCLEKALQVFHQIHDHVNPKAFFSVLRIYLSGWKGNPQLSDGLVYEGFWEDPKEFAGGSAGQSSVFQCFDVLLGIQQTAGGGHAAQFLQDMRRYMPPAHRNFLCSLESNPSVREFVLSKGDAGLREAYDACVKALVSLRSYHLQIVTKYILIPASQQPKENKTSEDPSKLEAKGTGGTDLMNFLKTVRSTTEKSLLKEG

Going from COc1ccc(-c2nnc(N[C@H](C)[C@H]3CC[C@@H](c4ccnc5ccc(F)cc54)CC3)o2)cn1 [Example 33, N-((R)-1-((1s,4S)-4-(6-fluoroquinolin-4-yl)cyclohexyl)ethyl)-5-(6-methoxypyridin-3-yl)-1,3,4-oxadiazol-2-amine] to COc1ccc(-c2nnc(N[C@H](C)[C@H]3CC[C@@H](c4ccnc5ccc(F)cc54)CC3)o2)cc1 [Example 25, N—((R)-1-((1s,4S)-4-(6-Fluoroquinolin-4-yl)cyclohexyl)ethyl)-5-(4-methoxyphenyl)-1,3,4-oxadiazol-2-amine], the pIC50 rises from 7.19 to 8.02 (0.83 log units).

First: C[C@@H](Nc1nnc(C2CC2)o1)[C@H]1CC[C@@H](c2ccnc3ccc(F)cc32)CC1 [Example 28, 5-cyclopropyl-N-((R)-1-((1s,4S)-4-(6-fluoroquinolin-4-yl)cyclohexyl)ethyl)-1,3,4-oxadiazol-2-amine]
Second: CCC(Nc1nnc(-c2ccc(OC)cc2)o1)[C@H]1CC[C@@H](c2ccnc3ccc(F)cc32)CC1 (single isomer, unassigned) [Example 49-1, N-(1-((1s,4s)-4-(6-Fluoroquinolin-4-yl)cyclohexyl)propyl)-5-(4-methoxyphenyl)-1,3,4-oxadiazol-2-amine]
The pIC50 of the first is 1.62 log units lower: 7.43 for the first, 9.05 for the second. The second is the more potent here.

First: COc1ccc(-c2csc(N[C@H](C)[C@H]3CC[C@@H](c4ccnc5ccc(F)cc54)CC3)n2)cc1 [Example 36, N—((R)-1-((1s,4S)-4-(6-Fluoroquinolin-4-yl)cyclohexyl)ethyl)-4-(4-methoxyphenyl)thiazol-2-amine]
Second: COc1ccc(-c2nnc([C@H](C)[C@H]3CC[C@@H](c4ccnc5ccc(F)cc54)CC3)[nH]2)cc1 [Example 9]
The pIC50 of the first is 0.58 log units lower: 6.14 for the first, 6.72 for the second.

First: C[C@@H](c1nnc(Nc2ccc(F)cc2)[nH]1)[C@H]1CC[C@@H](c2ccnc3ccc(F)cc32)CC1 [Example 21, N-(4-Fluorophenyl)-5-((R)-1-((1s,4s)-4-(6-fluoroquinolin-4-yl)cyclohexyl)ethyl)-4H-1,2,4-triazol-3-amine]
Second: C[C@@H](c1nnc(Nc2ccc(F)cc2)s1)[C@H]1CC[C@@H](c2ccnc3ccc(F)cc32)CC1 [Example 7, N-(4-Fluorophenyl)-5-((R)-1-((1s,4S)-4-(6-fluoroquinolin-4-yl)cyclohexyl)ethyl)-1,3,4-thiadiazol-2-amine]
The pIC50 of the first is 0.90 log units higher: 7.17 for the first, 6.27 for the second.

Compared with CCC(Nc1nnc(-c2ccc(OC)cc2)o1)[C@H]1CC[C@@H](c2ccnc3ccc(F)cc32)CC1 (mixture of isomers) [Example 48, N-(1-((1s,4s)-4-(6-Fluoroquinolin-4-yl)cyclohexyl)propyl)-5-(4-methoxyphenyl)-1,3,4-oxadiazol-2-amine], C[C@@H](c1ncc(-c2ccc(F)cc2)[nH]1)[C@H]1CC[C@@H](c2ccnc3ccc(F)cc32)CC1 [Example 47, 6-Fluoro-4-((1S,4s)-4-((R)-1-(5-(4-fluorophenyl)-1H-imidazol-2-yl)ethyl)cyclohexyl)quinoline] is 0.70 log units lower in pIC50: 8.44 for the first, 7.74 for the second. The first is the more potent here.

Reference: patent publication US11351164B2, “Inhibitors of indoleamine 2,3-dioxygenase and methods of their use” (BRISTOL-MYERS SQUIBB COMPANY, priority 2016, dated 2022)
